Values quoted from earlier work as cited in patent US6703045B2, “Composition and method for maintaining blood glucose level” (Council of Scientific & Industrial Research, priority 2001, dated 2004).

[1] = approximate incidence in patients

Cc1cnc(C(=O)NCCc2ccc(S(=O)(=O)NC(=O)NC3CCCCC3)cc2)cn1 [Glipizide, 1-cyclohexyl-3-[[p-[2-(5-methylpyrazinecarboxamido)ethyl]phenyl]sulfonyl] urea]
incidence of constipation and gastralgia [1]: one in one hundred | incidence of nausea and diarrhea [1]: one in seventy | incidence of dizziness, drowsiness, and headache (each) (patients): about one in fifty
